pIC50: −log10 of the molar value. Values after ≈ are worked out from the molar mass of the structure shown. Active and inactive are the calls of the source. The rule behind the calls is not given here.
Tests used:
[1] = biological target: T1, Protein cereblon/Bromodomain-containing protein 4 (Homo sapiens, UniProt O60885+Q96SW2); test: PROTAC activity at CRBN/Hibit-tagged BRD4 (unknown origin) expressed in HEK293 cells co-expressing LgBiT assessed as degradation of BRD4 incubated for 24 hrs by […] glo-max assay; assay type: cell-based
[2] = biological target: T1, Protein cereblon/Bromodomain-containing protein 4; test: PROTAC activity at CRBN/Hibit-tagged BRD4 (unknown origin) expressed in HEK293 cells co-expressing LgBiT assessed as degradation of BRD4 incubated for 24 hrs by […] glo-max assay relative to control; assay type: cell-based
[3] = biological target: T1, Protein cereblon/Bromodomain-containing protein 4; test: PROTAC activity at CRBN/Hibit-tagged BRD4 (unknown origin) expressed in HEK293 cells co-expressing LgBiT assessed as degradation rate incubated for 24 hrs by […] glo-max assay; assay type: cell-based
[4] = system: MV4-11; test: Cytotoxicity against human MV4-11 cells assessed as reduction in cell viability incubated for 72 hrs by cell-titer glo assay; assay type: functional, cell-based; settings: MV4-11, 72 h
[5] = system: HD-MB03; test: Cytotoxicity against human HD-MB03 cells assessed as reduction in cell viability incubated for 72 hrs by cell-titer glo assay; assay type: functional, cell-based; settings: HD-MB03, 72 h
[6] = Kinetic aqueous solubility of the compound at pH 7.4; assay type: physicochemical; settings: read-out: Kinetic_solubility
[7] = Metabolic stability in mouse liver microsomes assessed as half life; assay type: ADME, Microsome; settings: liver microsomes
[8] = biological target: Protein cereblon/Bromodomain-containing protein 4/DNA damage-binding protein 1 (Homo sapiens) (UniProt O60885+Q96SW2+Q16531); test: Binding affinity to his-tagged CRBN/DDB1/GST-tagged BRD4 (49 to 170 residues)(unknown origin) assessed as ternary complex formation (AUC) incubated for 1 hr by luminescence based Alphascreen assay; assay type: protein assay
[9] = system: HEK293; test: Cytotoxicity against HEK293 cells expressing LgBiT fused HiBiT-BRD2 measured after 24 hrs by cell titer-glo assay; assay type: toxicity, cell-based; settings: human, hek293, 24 h
[10] = biological target: T2, Protein cereblon/Bromodomain-containing protein 2 (Homo sapiens) (UniProt P25440+Q96SW2); test: PROTAC activity at CRBN/Hibit-tagged CRISPR BRD2 (unknown origin) expressed in HEK293 cells coexpressing LgBiT assessed as degradation of BRD2 by […] glo-max assay; assay type: cell-based
[11] = biological target: Protein cereblon/Bromodomain-containing protein 3 (Homo sapiens) (UniProt Q15059+Q96SW2); test: PROTAC activity at CRBN/Hibit-tagged CRISPR BRD3 (unknown origin) expressed in HEK293 cells co-expressing LgBiT assessed as degradation of BRD3 by […] glo-max assay; assay type: cell-based
[12] = biological target: T1, Protein cereblon/Bromodomain-containing protein 4; test: PROTAC activity at CRBN/Hibit-tagged CRISPR BRD4 (unknown origin) expressed in HEK293 cells co-expressing LgBiT assessed as degradation of BRD4 by […] glo-max assay; assay type: cell-based
[13] = Effect on BRD3 level in human MV4-11 cells assessed as fold change at 100 nM measured after 4 hrs; assay type: functional
[14] = Effect on BRD4 level in human MV4-11 cells assessed as fold change at 100 nM measured after 4 hrs; assay type: functional
[15] = Effect on BRD2 level in human MV4-11 cells assessed as fold change at 100 nM measured after 4 hrs; assay type: functional
[16] = Effect on MYC level in human MV4-11 cells assessed as fold change at 100 nM measured after 4 hrs; assay type: functional
[17] = Effect on FYTTD1 level in human MV4-11 cells assessed as fold change at 100 nM measured after 4 hrs; assay type: functional
[18] = Effect on CCNF level in human MV4-11 cells assessed as fold change at 100 nM measured after 4 hrs; assay type: functional
[19] = Effect on CDC42EP3 level in human MV4-11 cells assessed as fold change at 100 nM measured after 4 hrs; assay type: functional
[20] = Effect on MCL1 level in human MV4-11 cells assessed as fold change at 100 nM measured after 4 hrs; assay type: functional
[21] = Effect on PLAU level in human MV4-11 cells assessed as fold change at 100 nM measured after 4 hrs; assay type: functional
[22] = Effect on ZFP36L2 level in human MV4-11 cells assessed as fold change at 100 nM measured after 4 hrs; assay type: functional
[23] = Effect on FGL2 level in human MV4-11 cells assessed as fold change at 100 nM measured after 4 hrs; assay type: functional
[24] = Effect on NSA2 level in human MV4-11 cells assessed as fold change at 100 nM measured after 4 hrs; assay type: functional
[25] = Effect on CCND3 level in human MV4-11 cells assessed as fold change at 100 nM measured after 4 hrs; assay type: functional
[26] = Effect on AURKA level in human MV4-11 cells assessed as fold change at 100 nM measured after 4 hrs; assay type: functional
[27] = Effect on NOP53 level in human MV4-11 cells assessed as fold change at 100 nM measured after 4 hrs; assay type: functional
[28] = Effect on PLK1 level in human MV4-11 cells assessed as fold change at 100 nM measured after 4 hrs; assay type: functional
[29] = Effect on RNF166 level in human MV4-11 cells assessed as fold change at 100 nM measured after 4 hrs; assay type: functional
[30] = Effect on ZBTB21 level in human MV4-11 cells assessed as fold change at 100 nM measured after 4 hrs; assay type: functional
[31] = Effect on TP53 level in human MV4-11 cells assessed as fold change at 100 nM measured after 4 hrs; assay type: functional
[32] = Stability in mouse plasma assessed as half life by UPLC-MS/MS analysis; assay type: ADME, cell-free
[33] = Permeability in MDCK-II cells incubated for 1 hr by UPLC/MS/UV analysis; assay type: ADME, cell-based, Canis lupus familiaris; settings: dog, read-out: permeability
[34] = biological target: T2, Protein cereblon/Bromodomain-containing protein 2 (Homo sapiens); test: PROTAC activity at CRBN/Hibit-tagged CRISPR BRD2 (unknown origin) expressed in HEK293 cells coexpressing LgBiT assessed as degradation of BRD2 by […] glo-max assay relative to control; assay type: cell-based

SMILES | DC50 [1] [nM] | Emax [2] [%] | Activity [3] [fRLU/hr] | pIC50 [4] | pIC50 [5] | solubility kinetic [6] [µM] | half-life [7] [h] | Activity [8] | Activity [9] | fold change (FC) [13] | fold change (FC) [14] | fold change (FC) [15] | fold change (FC) [16] | fold change (FC) [17] | fold change (FC) [18] | fold change (FC) [19] | fold change (FC) [20] | fold change (FC) [21] | fold change (FC) [22] | fold change (FC) [23] | other results
Cc1sc2c(c1C)C(c1ccc(Cl)cc1)=N[C@@H](CC(=O)N1CCN(c3ccc(C4CCC(=O)NC4=O)cc3)CC1)c1nnc(C)n1-2 (stereo partly drawn) | > 10000 | 10.6 | 0.005 | 7.73 | 6.60 | 17 (≈ 11.2 µg/mL) | 0.2 | Active; Lower Ternary Complex Auc Formation Observed | Non-toxic |  |  |  |  |  |  |  |  |  |  |  | 
Cc1sc2c(c1C)C(c1ccc(Cl)cc1)=N[C@@H](CC(=O)OC(C)(C)C)c1nnc(C)n1-2 |  |  |  |  |  |  | 0.23 |  |  |  |  |  |  |  |  |  |  |  |  |  | 
Cc1sc2c(c1C)C(c1ccc(Cl)cc1)=N[C@@H](CC(=O)NCCCOc1ccc(C3CCC(=O)NC3=O)cc1)c1nnc(C)n1-2 (stereo partly drawn) | 0.75 | 97.3 | 0.264 | 9.64 | 8.49 | 52.8 (≈ 34.1 µg/mL) | 0.16 | Active | Non-toxic |  |  |  |  |  |  |  |  |  |  |  | 
Cc1sc2c(c1C)C(c1ccc(Cl)cc1)=N[C@@H](CC(=O)N1CC(COc3ccc(C4CCC(=O)NC4=O)cc3)C1)c1nnc(C)n1-2 (stereo partly drawn) | 13.9 | 40.4 | 0.07 | 8.51 | 7.42 | 21.3 (≈ 14 µg/mL) | 0.28 | Active | Non-toxic |  |  |  |  |  |  |  |  |  |  |  | 
Cc1sc2c(c1C)C(c1ccc(Cl)cc1)=N[C@@H](CC(=O)N1CCC(CN3CCN(c4ccc(NC5CCC(=O)NC5=O)c(F)c4)CC3)CC1)c1nnc(C)n1-2 (stereo partly drawn) | 2.31 | 79.1 | 0.093 | 9.02 | 7.84 | 71.1 (≈ 55.9 µg/mL) | 1.86 | Active |  | -3.87 | -3.41 | -3.07 | -2.23 | -1.46 | -1.62 | -1.17 | -1.06 | -1.06 | -0.97 | -0.95 | Activity [10]: Active; Less Potent Than Protac 8; Activity [11]: Active; Less Potent Than Protac 8; Activity [12]: Active; Less Potent Than Protac 8; fold change (FC) [24]: -1.03; fold change (FC) [25]: -0.82; fold change (FC) [26]: -0.77; fold change (FC) [27]: -0.82; fold change (FC) [28]: -0.65; fold change (FC) [29]: -0.33; fold change (FC) [30]: -0.09; fold change (FC) [31]: 1.71; half-life [32]: 19.7 h
Cc1sc2c(c1C)C(c1ccc(Cl)cc1)=N[C@@H](CC(=O)N1CCC(CN3CCN(c4cc5c(cc4F)C(=O)N(C4CCC(=O)NC4=O)C5=O)CC3)CC1)c1nnc(C)n1-2 (stereo partly drawn) | 6.28 | 88.6 | 0.143 | 8.49 | 7.08 | 73.4 (≈ 61.7 µg/mL) | 0.28 | Active |  | -3.93 | -3.89 | -3.06 | -2.29 | -1.52 | -1.86 | -1.41 | -1.22 | -1.14 | -1.09 | -1.1 | Activity [10]: Active; Less Potent Than Protac 8; Activity [11]: Active; Less Potent Than Protac 8; Activity [12]: Active; Less Potent Than Protac 8; fold change (FC) [24]: -1.04; fold change (FC) [25]: -0.96; fold change (FC) [26]: -0.84; fold change (FC) [27]: -0.81; fold change (FC) [28]: -0.75; fold change (FC) [29]: -1.01; fold change (FC) [30]: -0.02; fold change (FC) [31]: 1.82; Papp at 1 h [33]: 10.5 ×10⁻⁶ cm/s; half-life [32]: 13.7 h
Cc1sc2c(c1C)C(c1ccc(Cl)cc1)=N[C@@H](CC(=O)N1CCN(c3cccc(C4CCC(=O)NC4=O)c3)CC1)c1nnc(C)n1-2 (stereo partly drawn) | > 10000 | 12.3 | 0.005 | 8.20 | 7.04 | 21.5 (≈ 14.1 µg/mL) | 0.29 | Active; Lower Ternary Complex Auc Formation Observed | Non-toxic |  |  |  |  |  |  |  |  |  |  |  | 
Cc1sc2c(c1C)C(c1ccc(Cl)cc1)=N[C@@H](CC(=O)N1CCN(CC3CCN(c4ccc(C5CCC(=O)NC5=O)cc4)CC3)CC1)c1nnc(C)n1-2 (stereo partly drawn) | 0.43 | 96.9 | 0.245 | 9.66 | 8.71 | 64.5 (≈ 48.6 µg/mL) | 2.16 | Active | Non-toxic |  |  |  |  |  |  |  |  |  |  |  | 
Cc1sc2c(c1C)C(c1ccc(Cl)cc1)=N[C@@H](CC(=O)N1CCC(CN3CCN(c4ccc(NC5CCC(=O)NC5=O)cc4)CC3)CC1)c1nnc(C)n1-2 (stereo partly drawn) | 6.51 | 34.9 | 0.036 | 8.53 | 7.50 | 5.7 (≈ 4.38 µg/mL) | 2.45 | Active |  | -2.78 | -2.24 | -1.8 | -1.77 | -0.84 | -0.38 | -1 | -0.49 | -0.73 | -0.75 | -1.19 | Activity [34]: < 50%; fold change (FC) [24]: -0.65; fold change (FC) [25]: -0.56; fold change (FC) [26]: -0.55; fold change (FC) [27]: -0.49; fold change (FC) [28]: -0.56; fold change (FC) [29]: -0.29; fold change (FC) [30]: -0.14; fold change (FC) [31]: 1.12; half-life [32]: 12.9 h
